From patent US4046765A, “Dihydroquinoline derivatives of antioxidant activity and a process for the preparation thereof” (priority 1971, dated 1977)
Structures can show the parent of a compound that is named as a salt.

Legend:
[1] = solubility; format: physicochemical
[2] = antioxidant effect on fish-meal samples, oxygen uptake in Warburg apparatus and peroxide number; conditions: 40 g. fish meal + 0.04 g. antioxidant; for oxygen uptake (decrease of O2 pressure): 29° C., Warburg apparatus, control 19.5; for Peroxide Number: calculated for 1 g. of fish meal, after treatment with oxygen, control 7.83
Experimental: The antioxidant effect of the new substances shown in foodstuffs and nutriments was investigated on fish-meal samples. […] In these experiments the oxygen uptake of fish-meal samples containing the various antioxidants was determined in a Warburg apparatus at 29° C., and the results were compared with those measured on samples containing no antioxidant. The peroxide number of samples treated with oxygen was also determined.

[3] = in vivo; cited from earlier work
[4] = tested on: encephalomalacia of poultries; conditions: compared with EMQ; cited from earlier work
[5] = known antioxidant; cited from earlier work
[6] = biological systems, foodstuff mixtures; cited from earlier work
[7] = 0.56 g./kg., longer period, animals; cited from earlier work
[8] = tested on: rats; conditions: 0.50 g./kg., 14 days; cited from earlier work
[9] = tested on: rats; experiment: chronic toxicity of XAX, continuous administration to rats; format: in vivo, rat
Excerpt: (§1) Since the novel compounds are completely nontoxic, they can be used with great advantage in animal husbandry and in the food industry, as well as in therapy. On the basis of the investigations carried out on the acute and chronic toxicity of these new active agents, it can be stated that they are completely free of the disadvantages of the hitherto-known antioxidants mentioned above, first of all as regards their use in therapy.

[10] = tested on: malignant tumors; experiment: appearance of malignant tumors in animals treated with minimum irradiation doses for a long period; format: in vivo; conditions: versus irradiated untreated animals
Excerpt: Another important and unexpected property of the new substances is that they exert radiosensibilizing effect. […] On the basis of this property, the new compounds can also be used for the potentiating of the effect of irradiation therapy.

[11] = tested on: rats; conditions: rat, in vivo
Excerpt: as §1

[12] = tested on: liver cirrhosis caused by carbon tetrachloride; experiment: prophylactic activity against liver cirrhosis caused by carbon tetrachloride; format: in vivo
[13] = tested on: serum cholesterol; experiment: serum cholesterol lowering in rabbits treated with cholesterol; format: in vivo, rabbit; conditions: 1 g. cholesterol per day, XAX 0.06 g./kg. daily, 70 or 105 days
Experimental: Due to this fact they can also be used for the prophylaxis and treatment of arteriosclerosis. This effect of the new substances was investigated on rabbits treated with 1 g. of cholesterol per day. The animals were treated for 70 or 105 days with daily doses of 0.06 g./kg. of XAX. […] Using the hitherto-known antioxidants, this very favorable and important effect could not be reached at all.

[14] = 90 days, versus untreated animals

## CC1=CC(C)(C)Nc2ccc(Cc3ccc4c(c3)C(C)=CC(C)(C)N4)cc21 [Example 8, bis-(2,2,4-trimethyl-1,2-dihydroquinolyl-6)-methane]
[1]
  solubility in water and alcohol: well soluble in water and alcohol

## Cc1cc(C(C)(C)C)c(O)c(C(C)(C)C)c1 [BHT]
[2]
  oxygen uptake (decrease of O2 pressure): 16.5 mmHg
  Peroxide Number: 3.42
[3]
  teratogeneous effect (anophthalmia): the appearance of anophthalmia was observed, indicating that the compound exerts a teratogeneous effect
[4]
  activity in encephalomalacia of poultries versus EMQ: far lower activity than EMQ

## c1ccc(Nc2ccc(Nc3ccccc3)cc2)cc1 [DPPD, N,N'-diphenyl-p-phenylenediamine]
[5]
  cancer-inducing effect: cancer-inducing effect
[6]
  activity as antioxidant: relatively low activity

## CC1=CC(C)(C)Nc2ccc(Cc3ccc4c(c3)C(C)=CC(C)(C)N4)cc21 [sulfuric acid salt of XAX]
[1]
  solubility in water and alcohol: soluble in water and alcohol

## CCOc1ccc2c(c1)C(C)=CC(C)(C)N2 [EMQ, 6-ethoxy-2,2,4-trimethyl-1,2-dihydroquinoline]
[2]
  oxygen uptake (decrease of O2 pressure): 23.5 mmHg
  Peroxide Number: 2.87
[7]
  appetite: may cause appetite lowering
  gain in weight: lowers the gain in weight
[8]
  appetite: the appetite of the animals was lowered
  size of the liver: an increase in size of the liver was observed

## CC1=CC(C)(C)Nc2ccc(Cc3ccc4c(c3)C(C)=CC(C)(C)N4)cc21 [XAX, bis-(2,2,4-trimethyl-1,2-dihydroquinolyl-6)-methane]
[9]; [14]
  weight gain and blood picture: Neither the weight gain nor the blood picture of the animals was harmfully affected
  weight gain of some organs: no excessive weight gain of some organs of the animals could be observed
[9]; daily 0.25 mg./kg., 3 weeks
  damaging of tissues or cells: no damaging of tissues or cells could be observed
[10]
  appearance of malignant tumors: could be suppressed
[2]
  oxygen uptake (decrease of O2 pressure): 11.5 mmHg
  Peroxide Number: 1.54
[11]
  toxic symptoms: no toxic symptoms
[12]
  prophylactic activity against liver cirrhosis: great prophylactic activity
[13]
  cholesterol level of the blood: the cholesterol level of the blood decreased to a great extent

## CC1=CC(C)(C)Nc2ccc(Cc3ccc4c(c3)C(C)=CC(C)(C)N4)cc21 [Example 9, bis-(2,2,4-trimethyl-1,2-dihydroquinolyl-6)-methane-dihydrochloride]
[1]
  solubility in water and alcohol: soluble in water and alcohol
